From ChEMBL document CHEMBL1157811, “Synthesis, anticoagulant and PIVKA-II induced by new 4-hydroxycoumarin derivatives” (Bioorg Med Chem, 2010) come the findings set out here.

The source made the active and inactive calls. The rule behind the calls is not given here.

The subject of data set [1] is HepG2. The data set can be described thus: Anticoagulant activity in human HepG2 cells assessed as accumulation of des-gamma carboxyprothrombin at 30 uM after 24 hrs by ELISA. The data set is classed as functional, cell-based.
Data set [2] relates to HepG2. Nature of the data set: Anticoagulant activity in human HepG2 cells assessed as accumulation of des-gamma carboxyprothrombin at 30 uM after 24 hrs by ELISA relative to warfarin. The data set is classed as functional.
Data set [3] has as its system HepG2. The data set can be described thus: Anticoagulant activity in human HepG2 cells assessed as accumulation of des-gamma carboxyprothrombin at 10 uM after 24 hrs by ELISA relative to warfarin. The data set is classed as functional.
Data set [4] deals with Mus musculus. The data set can be described thus: Ex vivo anticoagulant activity in albino mouse assessed as blood clotting time at 150 mg/kg, po administered daily for 3 successive days measured after 24 hrs of last dose. The data set is classed as functional.
Data set [5] concerns Mus musculus. The data set can be described thus: Ex vivo anticoagulant activity in albino mouse assessed as prothrombin time at 150 mg/kg, po administered daily for 3 successive days measured after 24 hrs of last dose. The data set is classed as functional.
Data set [6] is described as follows: Toxicity in po dosed albino mouse assessed as mortality administered daily for 3 successive days. The data set is classed as organism-based. To be noted: in vivo.
Data set [7] concerns HepG2. Nature of the data set: Anticoagulant activity in human HepG2 cells assessed as accumulation of des-gamma carboxyprothrombin after 24 hrs by ELISA. The data set is classed as functional, cell-based.
In data set [8] the test system is HepG2. Nature of the data set: Anticoagulant activity in human HepG2 cells assessed as accumulation of des-gamma carboxyprothrombin at 3.33 uM after 24 hrs by ELISA relative to warfarin. The data set is classed as functional.
The subject of data set [9] is HepG2. Nature of the data set: Anticoagulant activity in human HepG2 cells assessed as accumulation of des-gamma carboxyprothrombin at 3.3 uM after 24 hrs by ELISA. The data set is classed as functional, cell-based.
In data set [10] the test system is HepG2. The data set can be described thus: Anticoagulant activity in human HepG2 cells assessed as accumulation of des-gamma carboxyprothrombin at 1.1 uM after 24 hrs by ELISA relative to warfarin. The data set is classed as functional, cell-based.

Regarding `COc1ccc(C2CC(c3c(O)c4ccccc4oc3=O)=NN2)cc1` (stereo not given), the outcome in the data set with HepG2 [1] was Active. In addition, the Activity is reported as 17.3% in the data set with HepG2 [2] and 17.76% in the data set with HepG2 [3].
On to `COc1cc(-c2cc(-c3c(O)c4ccccc4oc3=O)[nH]c(=O)c2C#N)cc(OC)c1OC`, for which the result in the data set on HepG2 [1] was inactive. Besides, the Time came to 15.67 s in the data set with Mus musculus [4] and 0.192 min in the data set with Mus musculus [5].
Turning to `COc1cc(C2CC(c3c(O)c4ccccc4oc3=O)=NC(S)=N2)cc(OC)c1OC` (stereo not given), in the data set with HepG2 [1], the result was Active. Besides, the Time in the data set on Mus musculus [4] is on record as 15.83 s; in the data set with Mus musculus [5], 0.173 min. Further, the Activity in the data set with HepG2 [2] is listed as 13%; in the data set on HepG2 [3] it was 5.2%.
For the compound `COc1ccc(C2CC(c3c(O)c4ccccc4oc3=O)=NN2C(N)=S)cc1` (stereo not given), the result in the data set on HepG2 [1] was Active. Also, the Activity in the data set on HepG2 [2] was 18.1%; in the data set with HepG2 [3] it was 13.7%.
On to `NC(=S)N1N=C(c2c(O)c3ccccc3oc2=O)CC1c1cccnc1` (stereo not given), for which the result in the data set on HepG2 [1] was Active. Further, the Time came to 16.67 s with Mus musculus [4] and 4.017 min in the data set with Mus musculus [5]. The results for the Activity in the data set with HepG2 [2] and in the data set on HepG2 [3] were 11.2% and 9.1%, respectively.
In the case of `COc1ccc(C2CC(c3c(O)c4ccccc4oc3=O)=NN2C(=S)Nc2ccccc2)cc1` (stereo not given), the result in the data set with HepG2 [1] was inactive.
Regarding `CC(=O)CC(c1ccccc1)c1c(O)c2ccccc2oc1=O` (stereo not given) [WARFARIN], in data set [6], the LD50 at 3 days was found to be 760 mg/kg. For the same compound, the Activity result with HepG2 [7] is “Dose-dependent effect”. For the same compound, the Time with Mus musculus [4] amounted to 18.17 s; with Mus musculus [5], 4.445 min.
Take `O=c1oc2ccccc2c(O)c1C1=NN(C(=S)Nc2ccccc2)C(c2cccnc2)C1` (stereo not given): the outcome in the data set on HepG2 [1] was Active. For the same compound, the Time is given as 12.17 s in the data set on Mus musculus [4] and 3.505 min with Mus musculus [5]. Also, the results for the Activity with HepG2 [2] and in the data set with HepG2 [3] were 19.4% and 19.3%, respectively.
As to `N#Cc1c(-c2cccnc2)cc(-c2c(O)c3ccccc3oc2=O)[nH]c1=O`, the Activity with HepG2 [3] was found to be 10%. In addition, the result in the data set on HepG2 [8] was inactive.
Consider `O=c1oc2ccccc2c(O)c1C1=NN(c2ccccc2)C(c2cccnc2)C1` (stereo not given), for which the LD50 at 3 days in [6] turned out to be 1790 mg/kg. Further, the Time in the data set with Mus musculus [4] was 22.5 s; in the data set on Mus musculus [5] it was 0.827 min. For the same compound, the results for the Activity in the data set on HepG2 [2] and in the data set on HepG2 [3] were 8.7% and 8.4%, respectively.
For `COc1cc(C2CC(c3c(O)c4ccccc4oc3=O)=NN2c2ccccc2)cc(OC)c1OC` (stereo not given), the outcome in the data set with HepG2 [9] was inactive.
As for `COc1cc(C2CC(c3c(O)c4ccccc4oc3=O)=NN2C(=S)Nc2ccccc2)cc(OC)c1OC` (stereo not given), the result in the data set on HepG2 [9] was inactive.
As to `O=c1oc2ccccc2c(O)c1C1=NC(S)=NC(c2cccnc2)C1` (stereo not given), in the data set with HepG2 [2], the Activity worked out at 8%. Moreover, the outcome with HepG2 [3] was inactive.
On to `COc1cc(C2CC(c3c(O)c4ccccc4oc3=O)=NN2)cc(OC)c1OC` (stereo not given), for which the outcome with HepG2 [1] was inactive.
As for `COc1cc(-c2cc(-c3c(O)c4ccccc4oc3=O)nc(N)c2C#N)cc(OC)c1OC`, the Time with Mus musculus [4] is listed as 9.5 s; in the data set on Mus musculus [5] it was 0.193 min.
Regarding `CC(=O)N1N=C(c2c(O)c3ccccc3oc2=O)CC1c1cccnc1` (stereo not given), the Time amounted to 20.83 s with Mus musculus [4] and 3.373 min with Mus musculus [5]. Moreover, the outcome in the data set with HepG2 [10] was inactive. Besides, the Activity in the data set with HepG2 [8] is given as 11.45%.
Take `N#Cc1c(-c2ccco2)cc(-c2c(O)c3ccccc3oc2=O)[nH]c1=O`: the Activity was found to be 8.8% with HepG2 [2] and 10% in the data set on HepG2 [3].
Take `O=c1oc2ccccc2c(O)c1C1=NNC(c2cccnc2)C1` (stereo not given): in the data set on HepG2 [1], the result was inactive. Besides, the Time in the data set on Mus musculus [4] worked out at 17.67 s; with Mus musculus [5], 0.53 min.
Take `N#Cc1c(-c2ccco2)cc(-c2c(O)c3ccccc3oc2=O)nc1N`: the result in the data set on HepG2 [1] was Active. For the same compound, the Activity with HepG2 [2] amounted to 10%; in the data set with HepG2 [3] it was 7.4%.
